Measurements taken from patent publication US20230416299A1, “COMPOUND AND METHOD FOR THE TREATMENT AND DIAGNOSIS OF NEURODEGENERATIVE CONDITIONS” (Swansea University, priority 2013, published 2023).

Legend:
Lxrβ-LBD = target: T1, Lxrβ-LBD (Homo sapiens, UniProt P55055); assay: LanthaScreen TR-FRET Lxrβ coactivator assay; format: binding
T1 construct: purchased Invitrogen
T1 sequence (P55055 222-460 limits assumed): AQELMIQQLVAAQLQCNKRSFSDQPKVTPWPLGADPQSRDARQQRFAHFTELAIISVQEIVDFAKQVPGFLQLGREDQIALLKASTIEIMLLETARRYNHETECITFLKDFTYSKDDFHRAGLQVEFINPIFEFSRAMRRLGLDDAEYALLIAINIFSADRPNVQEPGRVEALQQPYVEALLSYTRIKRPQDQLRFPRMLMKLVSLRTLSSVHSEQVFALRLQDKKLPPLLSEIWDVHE
Description: Lxrβ Ligand Binding Assay. For Lxrβ ligand binding activity measurement, the applicants used the LANTHASCREEN™ TR-FRET Lxrβ Coactivator Assay (Invitrogen). The assay uses a terbium (Tb)-labeled anti-GST antibody, a fluorescein-labeled coactivator peptide and the Lxrβ-LBD tagged with glutathione-S-transferase (GST). Binding of the agonist/ligand to Lxrβ-LBD causes a conformational change that result in an increase in the affinity of the Lxrβ for the coactivator peptide. The close proximity of the fluorescently labeled coactivator peptide to the Tb-labeled antibody causes an increase in the TR-FRET signal intensity. The TR-FRET ratio of 520/495 was calculated using a Victor multi label reader with an excitation wavelength of 340 nm and emission wavelengths of 520 nm and 495 nm. The activational capacity of potential ligands was tested in a […] polypropylene plate, following the manufacturer's protocol.

[1] = system: Islet1+ oculomotor neurons; assay: In utero injection into the cerebral aqueduct of E11.5 mice, analysis at E13.5; format: in vivo, mouse
Description: Animals for in-utero injections and tissue preparation. Female wild-type CD-1 mice (25-35 g; Charles River Breeding Laboratories) were housed, bred, and treated according to the guidelines of the European Communities Council (directive 86/609/EEC) and the Society for Neuroscience (www.sfr.org), and all experiments were approved by the local ethical committee. Ethical approval for CD-I mice experimentation was granted by Stockholm Norra Djurforsoksetisks Namnd number N1 54/06, N273/11 and N370/09. For embryo analyses, wild type CD-I mice were mated overnight, and noon of the day the plug was considered E0.5. Embryos were dissected out of the uterine horns in ice-cold PBS, fixed in 4% paraformaldehyde (PFA) for 4 h to overnight, cryoprotected in 15-30% sucrose, frozen in Tissue-Tek Optimum Cutting Temperature (OCT) compound (Sakura Fine-Tek) on dry ice, and stored at −80° C. until use. Serial coronal 14-μπι sections of the brain were obtained on a cryostat.
Immunohistochemical analysis of sections. Ten sets of 14 μπι serial coronal sections were cut on a cryostat. No. 1 and 6 sets were subjected to immunohistochemistry. Sections were pre-incubated for 1 h in blocking solution followed by incubation at 4° C. overnight with following primary antibodies: anti-TH (1:750, Pel-Freeze), anti-Islet-1 (1:100; Developmental Studies Hybridoma Bank), anti-cleaved caspase-3 (Aspl175) (1:100; Cell Signaling Technology). After washing, slides were incubated for 1-2 h at room temperature with the appropriate fluorophore-conjugated (Cy2-, Cy3- and Cy5-, 1:300, Jackson Laboratories; Alexa488-, 555-, and 647-, 1:1000, Invitrogen) secondary antibodies. Confocal pictures were taken with a Zeiss LSM5 Exciter or LSM700 microscope.
In utero intraventricular injections. E11.5 pregnant females were deeply anesthetized using Isofluorane (ISOFLO®, Abbott Labs) and the uterine horns were accessed through an abdominal incision. 1 μL of the different cholestenoic acids studied (5 mM) or vehicle solution (isopropanol, 50% v/v) was injected into the cerebral aqueduct. The uterine horns were replaced into the abdominal cavity, which was then closed with sutures. Embryos were analyzed 48 h later.

[2] = 1 μL of 5 mM injected at E11.5, analysed at E13.5

| SMILES | TR-FRET induction (coactivator recruitment to Lxrβ-LBD) (Lxrβ-LBD; dose response) | Number of Islet+ oculomotor neurons in vivo [1, 2] | Number of TH+ neurons in vivo [1, 2] | Effect of co-injection on the 3β-HCA-induced reduction of Islet+ oculomotor neurons ([1]; co-injected with 3β-HCA) | Competitor concentration with significant difference (p<0.05) from 10 μM 3β,7α-diHCA alone in TR-FRET Lxrβ coactivator assay (Lxrβ-LBD; added to 10 μM 3β,7α-diHCA) [µM] | Competition with 3β,7α-diHCA in TR-FRET Lxrβ coactivator assay (Lxrβ-LBD; increasing concentrations with 3β,7α-diHCA at its most potent concentration) |
| --- | --- | --- | --- | --- | --- | --- |
| CC(CCC[C@@H](C)[C@H]1CC[C@H]2[C@@H]3[C@H](O)C=C4C[C@@H](O)CC[C@]4(C)[C@H]3CC[C@]12C)C(=O)O (stereo partly drawn) [3β,7α-diHCA, 3β,7α-dihydroxycholest-5-en-26-oic acid] | induced FRET in a dose dependent manner to a higher degree than the other acids | an increase in the number of Islet+ oculomotor neurons | not of TH+ neurons | this effect was eliminated by co-injection of 3β,7α-diHCA | – | – |
| CC(CCC[C@@H](C)[C@H]1CC[C@H]2[C@@H]3CC=C4C[C@@H](O)CC[C@]4(C)[C@H]3CC[C@]12C)C(=O)O (stereo partly drawn) [3β-HCA, 3β-hydroxycholest-5-en-26-oic acid] | – | the number of Islet+ oculomotor neurons was reduced | – | – | ≥ 5 | the effect of 3β,7α-diHCA was reduced to that of the latter acids |
